Data on 14 compounds can be found in ChEMBL document CHEMBL4411308, “Design, synthesis and biological evaluation of novel benzo- and tetrahydrobenzo-[h]quinoline derivatives as potential DNA-intercalating antitumor agents” (Eur J Med Chem, 2019).

The nature of assay [1]: Cytotoxicity against mouse C26 cells assessed as inhibition of cell proliferation after 48 hrs by MTT assay. It counts as functional, cell-based. Conditions: C26, 48 h. (Tetrazolium assays rely on reduction of a dye to a coloured formazan, in cell work by metabolically active cells.)
The subject of assay [2] is A2780. Description: Cytotoxicity against human A2780 cells assessed as inhibition of cell proliferation after 48 hrs by MTT assay. The assay is classed as functional, cell-based. Particulars: A2780, 48 h.
The subject of assay [3] is A549. Description: Cytotoxicity against human A549 cells assessed as inhibition of cell proliferation after 48 hrs by MTT assay. Particulars: A549, 48 h. It counts as functional, cell-based.
The test system of assay [4] is MCF7. Description: Cytotoxicity against human MCF7 cells assessed as inhibition of cell proliferation after 48 hrs by MTT assay. The assay is classed as functional, cell-based. Conditions: MCF7, 48 h.
For assay [5], the system named is A549. Description: Induction of apoptosis in human A549 cells assessed as late apoptotic cells at 5 uM after 24 hrs by Annexin V-FITC/propidium iodide staining based flow cytometry (reference value: 0.462%). The assay is classed as functional. For orientation: Flow cytometry measures light scatter and fluorescence of single cells or particles in a stream.
Assay [6] relates to A549. Description: Induction of apoptosis in human A549 cells after 24 hrs by Annexin V-FITC/propidium iodide staining based flow cytometry. It counts as functional, cell-based.
The subject of assay [7] is A549. Description: Induction of apoptosis in human A549 cells assessed as late apoptotic cells at 10 uM after 24 hrs by Annexin V-FITC/propidium iodide staining based flow cytometry (reference value: 0.462%). The assay is classed as functional.
Assay [8] relates to Calf thymus DNA. Description: Binding affinity to calf thymus DNA by UV-vis absorption spectrophotometric method. It counts as nucleic-acid assay. Particulars: Bos taurus.
Assay [9] deals with A549. Description: Induction of apoptosis in human A549 cells assessed as early apoptotic cells at 10 uM after 24 hrs by Annexin V-FITC/propidium iodide staining based flow cytometry (reference value: 0.886%). The assay is classed as functional.
Assay [10] relates to A549. Nature of the assay: Induction of apoptosis in human A549 cells assessed as necrotic cells at 10 uM after 24 hrs by Annexin V-FITC/propidium iodide staining based flow cytometry (reference value: 0.231%). The assay is classed as functional.
The subject of assay [11] is Calf thymus DNA. Nature of the assay: Binding affinity to calf thymus DNA by fluorescence spectroscopic method. It counts as nucleic-acid assay. Particulars: Bos taurus.
Assay [12] has as its system A549. Description: Induction of apoptosis in human A549 cells assessed as live cells at 5 uM after 24 hrs by Annexin V-FITC/propidium iodide staining based flow cytometry (reference value: 98.4%). It counts as functional.
Assay [13] concerns A549. Nature of the assay: Induction of apoptosis in human A549 cells assessed as live cells at 10 uM after 24 hrs by Annexin V-FITC/propidium iodide staining based flow cytometry (reference value: 98.4%). The assay is classed as functional.
Assay [14] concerns A549. Nature of the assay: Induction of apoptosis in human A549 cells assessed as necrotic cells at 5 uM after 24 hrs by Annexin V-FITC/propidium iodide staining based flow cytometry (reference value: 0.231%). The assay is classed as functional.
In assay [15] the test system is A549. Nature of the assay: Induction of apoptosis in human A549 cells assessed as early apoptotic cells at 5 uM after 24 hrs by Annexin V-FITC/propidium iodide staining based flow cytometry (reference value: 0.886%). It counts as functional.
Assay [16] concerns A549. Description: Induction of apoptosis in human A549 cells assessed as late apoptotic cells at 1 uM after 24 hrs by Annexin V-FITC/propidium iodide staining based flow cytometry (reference value: 0.462%). The assay is classed as functional.
Assay [17] relates to A549. Description: Induction of apoptosis in human A549 cells assessed as live cells at 1 uM after 24 hrs by Annexin V-FITC/propidium iodide staining based flow cytometry (reference value: 98.4%). It counts as functional.
For assay [18], the system named is A549. Nature of the assay: Induction of apoptosis in human A549 cells assessed as early apoptotic cells at 1 uM after 24 hrs by Annexin V-FITC/propidium iodide staining based flow cytometry (reference value: 0.886%). The assay is classed as functional.
The test system of assay [19] is A549. Description: Induction of apoptosis in human A549 cells assessed as necrotic cells at 1 uM after 24 hrs by Annexin V-FITC/propidium iodide staining based flow cytometry (reference value: 0.231%). It counts as functional.

pIC50: −log10 of the molar value. Some results are limits rather than exact numbers.

For orientation: pIC50 means −log10 of the IC50, conventionally taken in molar units. In the case of `COc1cc(-c2cc(C(=O)NCCN(C)C)c3ccc4c(c3n2)CCCC4)cc(OC)c1OC`, the pIC50 is 4.94 in assay [1], 4.96 in [2], 4.84 in [3] and 5.25 in assay [4].
On to `Cc1ccc(-c2cc(C(=O)NCCN(C)C)c3ccc4ccccc4c3n2)cc1`, for which the Activity in assay [5] is 0.18%; in [6], “Dose-dependent effect”; in assay [7], 0.08%; in [9], 24.6%; in assay [10], 0.22%; in assay [12], 94.1%. The Activity in assay [13] came to 75.1%; in assay [14], 0.2%; in [15], 5.48%. Moreover, the negative logarithm of the IC50 (pIC50) is 5.44 in [1], 5.04 in assay [2], 5.23 in assay [3] and 5.82 in [4]. Moreover, the Kb in assay [8] amounted to 2.2 ×10⁴ No_unit; in assay [11], 8.1 ×10⁴ No_unit.
`CN(C)CCNC(=O)c1cc(-c2ccccc2)nc2c1ccc1ccccc12`: the negative-log IC50 (pIC50) in assay [1] is 4.45; in [2], 4.14; in assay [3] it was 4.18; in assay [4], 4.48.
For the compound `CC(=O)Nc1ccc(-c2cc(C(=O)NCCN(C)C)c3ccc4c(c3n2)CCCC4)cc1`, the Activity is 7.58% in assay [5]; “Dose-dependent effect” in assay [6]; 0.34% in assay [7]; 46.4% in assay [9]; 0.34% in assay [10]; 63.7% in [12]. Further, the Activity in assay [13] stood at 53%; in assay [14], 1.22%; in assay [15], 27.5%. The pIC50 in assay [1] is 5.41; in assay [2], 5.73; in [3], 5.72; in assay [4], 5.57. The Kb in [8] stood at 2 ×10⁴ No_unit.
For the compound `COc1ccc(-c2cc(C(=O)NCCN(C)C)c3ccc4c(c3n2)CCCC4)cc1`, the negative logarithm of the IC50 (pIC50) in [1] is 5.14; in [2], 5.78; in assay [3], 5.30; in [4] it was 5.20.
For `Cc1ccc(-c2cc(C(=O)NCCN(C)C)c3ccc4c(c3n2)CCCC4)cc1`, the Activity in assay [5] was 0.093%; in assay [6], “Dose-dependent effect”; in assay [7] it was 0.72%; in assay [9], 44.4%; in [10], 0.01%; in assay [12], 97.8%. For the same compound, the figures for the Activity in assay [13], in assay [14] and in assay [15] were 54.9%, 1.02% and 1.13%, respectively. Moreover, the negative logarithm of the IC50 (pIC50) in assay [1] was 5.63; in assay [2], 5.67; in assay [3], 5.41; in [4], 5.64. For the same compound, the figures for the Kb in assay [8] and in [11] were 1.75 ×10⁴ No_unit and 6.4 ×10⁴ No_unit, respectively.
Regarding `COc1cccc2c1C(=O)c1c(O)c3c(c(O)c1C2=O)C[C@@](O)(C(=O)CO)C[C@@H]3O[C@H]1C[C@H](N)[C@H](O)[C@H](C)O1` [DOXORUBICIN], the Activity in [16] came out at 11.1%; in assay [17] it was 31%; in assay [18], 2.19%; in [19], 55.8%. The pIC50 in assay [2] was 6.91; in assay [3] it was 6.12; in [4], 6.30.
As to `CC(=O)Nc1ccc(-c2cc(C(=O)NCCN(C)C)c3ccc4ccccc4c3n2)cc1`, the pIC50 in assay [1] is 5.11; in [2], 5.03; in assay [3] it was 5.10; in assay [4], 5.39.
For `COc1ccc(-c2cc(C(=O)NCCN(C)C)c3ccc4c(c3n2)CCCC4)cc1OC`, the pIC50 is 4.90 in [1], 4.94 in [2], 4.81 in assay [3] and 4.86 in assay [4].
As for `CN(C)CCNC(=O)c1cc(-c2ccc(F)cc2)nc2c3c(ccc12)CCCC3`, the pIC50 was 4.74 in assay [1], 5.21 in [2], 4.87 in assay [3] and 4.89 in assay [4].
With `CN(C)CCNC(=O)c1cc(-c2ccc(F)cc2)nc2c1ccc1ccccc12`, the pIC50 in assay [1] is 5.28; in assay [2], 4.84; in assay [3] it was 4.73; in assay [4], 4.78.
`COc1ccc(-c2cc(C(=O)NCCN(C)C)c3ccc4ccccc4c3n2)cc1`: the pIC50 in assay [1] was 5.62; in assay [2] it was 4.85; in [3], 4.70; in assay [4], 4.43. Also, the results for the Kb in [8] and in assay [11] were 2 ×10⁴ No_unit and 7.4 ×10⁴ No_unit, respectively.
In the case of `CN(C)CCNC(=O)c1cc(-c2ccccn2)nc2c3c(ccc12)CCCC3`, the pIC50 was 4.30 in assay [1], 4.83 in assay [2], 4.22 in assay [3] and 4.78 in assay [4].
For `CN(C)CCNC(=O)c1cc(-c2ccccn2)nc2c1ccc1ccccc12` the same measures were 4.41, 4.21, 4.25 and less than 4.00.
